According to paper PMC8243516, “Inhibition of lysosomal phospholipase A2 predicts drug-induced phospholipidosis” (Journal of Lipid Research, 2021):
Values joined by “and” are separate entries in the source; they are usually repeats but may differ in a detail not shown here. Equal values may be shown once. Read-outs that look alike come from different tables or passages of the source.

Tests used:
MDCK cells = test: Screening phospholipidosis assay (LipidTOX Red / NucBlue Live fluorescence ratio); conditions: LipidTOX Red to NucBlue Live fluorescence ratio, 24 h, 15 μM
LPLA2 = biological target: T1, LPLA2 (Mus musculus, UniProt Q8VEB4); test: LPLA2 thermal stability measurement (SYPRO Orange Tm); format: binding
T1 construct: purchased Proteos Inc. (Kalamazoo, MI)
T1 sequence (Q8VEB4 34-412): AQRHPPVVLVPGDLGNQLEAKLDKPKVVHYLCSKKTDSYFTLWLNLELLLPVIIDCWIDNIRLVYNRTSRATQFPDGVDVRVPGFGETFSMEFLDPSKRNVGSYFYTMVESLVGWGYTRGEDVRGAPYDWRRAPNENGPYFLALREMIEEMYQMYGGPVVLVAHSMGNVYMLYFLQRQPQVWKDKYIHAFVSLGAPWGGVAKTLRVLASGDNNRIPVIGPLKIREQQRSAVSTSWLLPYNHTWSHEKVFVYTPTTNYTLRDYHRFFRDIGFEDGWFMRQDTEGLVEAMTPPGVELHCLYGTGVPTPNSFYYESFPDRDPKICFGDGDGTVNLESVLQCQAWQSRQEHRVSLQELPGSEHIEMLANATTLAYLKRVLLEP

phospholipidosis = phospholipidosis reported in vitro; Refs of Table 1; cited from earlier work
[1] = biological target: T2, recombinant mouse LPLA2 (PLA2G15) (Mus musculus, UniProt Q8VEB4); test: Transacylase activity of LPLA2 (1-O-acyl-N-acetylsphingosine synthase, cell-free liposome assay); format: biochemical
T2 construct: purchased Proteos Inc. (Kalamazoo, MI)
T2 sequence (Q8VEB4 34-412): T1 sequence (Q8VEB4 34-412)

[2] = cited from earlier work
[3] = 1-O-acyl N-acetylsphingosine synthase activity, pH 4.5, DOPC/sulfatide liposomes, read-out: LPLA2 IC50
[4] = ref Pubchem and chEMBL databases
[5] = LPLA2 dependent 1-O-acyl N-acetylsphingosine synthase activity, read-out: LPLA2 IC50

Row | SMILES | Ratio (15 μM) (MDCK cells) | (ΔTm)c-(ΔTm)d, difference in melting temperature of LPLA2 alone or in the presence of drug (LPLA2) | (ΔTm)c-(ΔTm)d, difference in melting temperature of LPLA2 alone or in the presence of drug (LPLA2; N=3 ± SD) | In Vitro PLD (phospholipidosis) | IC50 [1, 3] | pKa (basic) [2, 4] | IC50 [1, 5] | pKa (basic) ([2]; ref Pubchem and chEMBL database) | LPLA2 inhibition (in words) ([1]; acyl transferase activity) | IC50 ([1]; LPLA2 IC50, 1-O-acyl N-acetylsphingosine synthase activity, pH 4.5, DOPC/sulfatide liposomes)
1 | Cl.NCCc1ccc(O)c(O)c1 [3-Hydroxytyramine hydrochloride] | 0.91 | 0.75 ± 0.0 °C | – | – | – | – | – | – | – | –
2 | NCCc1cc(O)c(O)cc1O [6-Hydroxydopamine] | 0.93 | – | -0.14 ± 0.1 °C | – | – | – | – | – | – | –
3 | O=C(O)c1ccccc1Nc1cccc(C(F)(F)F)c1 [Flufenamic acid, 2-{[3-(trifluoromethyl)phenyl]amino}benzoic acid] | – | – | -0.62 ± 0.3 °C | Yes | 178 µM | -2.1 | – | – | – | –
4 | CC(=O)N1CCN(c2ccc(OCC3COC(Cn4ccnc4)(c4ccc(Cl)cc4Cl)O3)cc2)CC1 (centres unmarked) [Ketoconazole, 1-[4-(4-{[2-(2,4-dichlorophenyl)-2-(1H-imidazole-1-ylmethyl)-1,3-dioxolan-4-yl]methoxy}phenyl)piperazin-1-yl]ethan-1-one] | – | – | 0.42 ± 0.8 °C | Yes | 39 µM | 6.75 | – | – | – | –
5 | COC(=O)C1=C(C)NC(C)=C(C(=O)OC(C)(C)CN(C)CCC(c2ccccc2)c2ccccc2)C1c1cccc([N+](=O)[O-])c1 (centres unmarked) [Lercanidipine, 3-{1-[(3,3-diphenylpropyl)(methyl)amino]-2-methylpropan-2-yl} 5-methyl 2,6-dimethyl-4-(3-nitrophenyl)-1,4-dihydropyridine-3,5-dicarboxylate] | – | – | 0.21 ± 0.3 °C | Yes | 37.2 µM | 9.36 | – | – | – | –
6 | CN(CCCN1c2ccccc2CCc2ccccc21)CC(=O)c1ccc(Cl)cc1 [Lofepramine, 2-[(3-{2-azatricyclo[9.4.0.0ˆ{3,8}]pentadeca-1(15),3,5,7,11,13-hexaen-2-yl}propyl) (methyl)amino]-1-(4-chlorophenyl) ethan-1-one] | – | – | 0 °C | Yes | 13.2 µM | 6.53 | – | – | – | –
7 | OC[C@@H](O)[C@@H](O)[C@H](O)[C@H](O)CO [Mannitol, (2R,3R,4R,5R)-hexane-1,2,3,4,5,6-hexol] | – | – | 1.0 ± 0.0 °C | Yes | 160 µM | 12.3 | – | – | – | –
8 | CN1CCc2c(c3ccccc3n2Cc2ccccc2)C1 [Mebhydrolin] | 2.54 | – | – | – | – | – | 146 µM | 6.7 | – | –
9 | COc1ccnc(C[S+]([O-])c2nc3ccc(OC(F)F)cc3[nH]2)c1OC (centres unmarked) [Pantoprazole, 6-(difluoromethoxy)-2-[(3,4-dimethoxypyridin-2-yl)methanesulfinyl] -1H-1,3-benzodiazole] | – | – | 0.25 ± 0.1 °C | Yes | 6.23 µM | 3.55 | – | – | – | –
10 | O=C1NC(=O)C(c2ccccc2)(c2ccccc2)N1 [Phenytoin] | 0.38 | – | 0.13 ± 0.1 °C | – | – | – | 60 µM | – | – | –
11 | O=c1[nH]c2ccccc2n1C1CCN(CCCC(c2ccc(F)cc2)c2ccc(F)cc2)CC1 [Pimozide, 1-{1-[4,4-bis(4-fluorophenyl)butyl]piperidin-4-yl}-2,3-dihydro-1H-1,3-benzodiazol-2-one] | – | 0.26 ± 0.0 °C | – | Yes | 10.6 µM | 8.38 | – | – | – | –
12 | Cc1nc2ccccn2c(=O)c1CCN1CCC(C(=O)c2ccc(F)cc2)CC1 [Pirenperone, 3-[2-[4-(4-Fluorobenzoyl)-1-piperidinyl]ethyl]-2-methyl-4H-pyrido-[1,2-a] pyrimidin-4-one] | – | – | 0.79 ± 0.0 °C and 0.79 ± 0.1 °C | Yes | 233 µM | 8.02 | – | – | – | –
13 | OC(CCN1CCCCC1)(c1ccccc1)c1ccccc1 [Pridinol, 1,1-diphenyl-3-(piperidin-1-yl)propan-1-ol] | – | – | 0 °C | Yes | 285 µM | 9.34 | – | – | – | –
14 | CC(=O)[C@H]1CC[C@H]2[C@@H]3CCC4=CC(=O)CC[C@]4(C)[C@H]3CC[C@]12C [Progesterone, (1S,3aS,3bS,9aR,9bS,11aS)-1-acetyl-9a,11a-dimethyl-1H,2H,3H, 3aH,3bH,4H,5H, 7H,8H,9H,9 aH,9bH, 10H,11H,11aH-cyclopenta [a] phenanthren-7-one] | – | – | 0.61 ± 0.1 °C | Yes | 10.5 µM | -4.8 | – | – | – | –
15 | CCCOc1ccc(C(=O)OCCN(CC)CC)cc1N [Proparacaine, 2-(diethylamino)ethyl 3-amino-4-propoxybenzoate] | – | – | 0 °C | Yes | 2470 µM | 8.56 | – | – | millimolar concentrations | –
16 | COc1ccc(CN(CCN(C)C)c2ccccn2)cc1 [Pyrilamine, N-[2-(dimethylamino)ethyl]-N-[(4-methoxyphenyl)methyl]pyridin-2-amine] | – | – | 0 °C | Yes | 214 µM | 8.76 | – | – | – | –
17 | CCOc1cc(CC(=O)NC(CC(C)C)c2ccccc2N2CCCCC2)ccc1C(=O)O (centres unmarked) [Repaglinide, 2-ethoxy-4-[2-({3-methyl-1-[2-(1-piperidinyl)phenyl]butyl}amino)-2-oxoethyl]benzoic acid] | – | – | -0.84 ± 1.5 °C | Yes | 86.5 µM | 4.28 | – | – | – | –
18 | CC1=C(/C=C/C(C)=C/C=C/C(C)=C/CO)C(C)(C)CCC1 [Retinol, (2E,4E,6E,8E)-3,7-dimethyl-9-(2,6,6-trimethylcyclohex-1-en-1-yl)nona-2,4,6,8-tetraen-1-ol] | – | – | 0.81 ± 0.3 °C | Yes | 52.5 µM | -2.2 | – | – | – | –
19 | CCCCNc1ccc(C(=O)OCCN(C)C)cc1 [Tetracaine, 2-(dimethylamino)ethyl 4-(butylamino)benzoate] | – | – | -1.20 ± 0.5 °C | Yes | 333 µM | 8.42 | – | – | – | –
20 | CC(CN(C)C)CN1c2ccccc2CCc2ccccc21 (centres unmarked) [Trimipramine, (3-{2-azatricyclo[9.4.0.0³,^8]pentadeca-1(15),3,5,7,11, 13-hexaen-2-yl}-2-methylpropyl)dimethylamine] | – | – | 0.56 ± 0.0 °C | Yes | 268 µM | 9.42 | – | – | – | –
21 | COC(=O)[C@@H]1[C@H]2C[C@H]3c4[nH]c5ccccc5c4CCN3C[C@@H]2CC[C@@H]1O [Yohimbine, methyl (1S,15R,18S,19R,20S)-18-hydroxy-3,13-diazapentacyclo [11.8.0.0^2,^10.0^4,^9.0^15,^20]henicosa-2(10),4,6,8-tetraene-19-carboxylate] | – | 1.52 ± 0.6 °C | – | Yes | – | 7.65 | – | – | – | 200 µM
22 | COc1cc(C(=O)NS(=O)(=O)c2ccccc2C)ccc1Cc1cn(C)c2ccc(NC(=O)OC3CCCC3)cc12 [Zafirlukast, cyclopentyl N-[3-({2-methoxy-4-[(2-methylbenzenesulfonyl)carbamoyl]phenyl}methyl)-1-methyl-1H-indol-5-yl]carbamate] | – | – | 1.80 ± 0.4 °C | Yes | 3.1 µM | -1.1 | – | – | – | –
